Test results: patent US11873486B2, “Modulating dsRNA editing, sensing, and metabolism to increase tumor immunity and improve the efficacy of cancer immunotherapy and/or modulators of intratumoral interferon” (Dana-Farber Cancer Institute, Inc., priority 2017, dated 2024)
“Also recorded” adds a separate entry of the source.

B1: IFNβ: mouse interferon beta (1000 U/mL, PBL) used on B16 cells (protein, UniProt P01575 22-182, looked up)
Interferon beta: INYKQLQLQERTNIRKCQELLEQLNGKINLTYRADFKIPMEMTEKMQKSYTAFAIQEMLQNVFLVFRNNFSSTGWNETIVVRLLDELHQQTVFLKTVLEEKQEERLTWEMSSTALHLKSYYWRVQRYLKLMKYNSYAWMVVRAEIFRNFLIIRRLTRNFQN

What was measured:
[1] = system: ADAR1; assay: Immunoblot of ADAR1 after CRISPR-Cas9 knockout; assay type: cell-based, human; details: A549 cells
Method: (§1) Cells were lysed in RIPA lysis buffer (Thermo Scientific) supplemented with 1× protease and phosphatase inhibitor cocktails (Roche). Protein extracts were analyzed by standard immunoblotting with the following antibodies: ADAR1 (D7E2M), MDA5 (D74E4), RIG-I (D14G6), ISG15 (22D2), USP18 (D4E7), PKR (#3072), STING (D2P2F), cGAS (D1D3G), IRF9 (D2T8M), PD-L1 (E1L3N), P-IRF3 Ser396 (4D4G), IRF3 (D6I4C), P-TBK1 Ser172 (D52C2), TBK1 (D1B4), P-EIF2α Ser51 (#9721), and EIF2α (D7D3) from Cell Signaling; P-PKR Thr446 (ab32036) from Abcam; R-actin C4 (sc-47778) from Santa Cruz. All antibodies were used at a dilution of 1:1000 except R-actin which was used at 1:4000). The following secondary antibodies were used at 1:5000 dilution: Goat anti-Rabbit IRDye 800CW (LI-COR, 926-32211) and Goat anti-Mouse IRDye […] (LI-COR, 926-68020). All immunoblots were imaged using the LI-COR digital imaging system and ImageJ.
guide RNA sequences were designed using the sgRNA designer tool on The RNAi Consortium (TRC) portal (available on the World Wide Web at portals.broadinstitute.org/gpp/public/analysis-tools/sgrnadesign). […] Guide sequences were cloned into the Cas9 expressing lentiviral vector CRISPRv2 (available on the World Wide Web at genomeengineering.org/crispr). For virus production, each CRISPRv2 vector and packaging vectors were introduced into 293T cells via calcium phosphate transfection (Clontech). […]

[2] = system: A549 cells; assay: Cell viability after CRISPR-Cas9 knockout of ADAR1, control cells; assay type: cell-based, human; details: 6 days after CRISPR-Cas9 knockout of ADAR1
Source text: (§2) guide RNA sequences were designed using the sgRNA designer tool on The RNAi Consortium (TRC) portal (available on the World Wide Web at portals.broadinstitute.org/gpp/public/analysis-tools/sgrnadesign). […] Guide sequences were cloned into the Cas9 expressing lentiviral vector CRISPRv2 (available on the World Wide Web at genomeengineering.org/crispr). For virus production, each CRISPRv2 vector and packaging vectors were introduced into 293T cells via calcium phosphate transfection (Clontech). Lentivirus was harvested in RPMI media supplemented with 10% FBS and filtered before addition to each cancer cell line. Infected cells were selected in 2 μg/ml puromycin or 10 μg/ml blasticidin for 7 days. Following this, protein lysates were harvested or cells were plated for proliferation assays in 96 well plates and grown in the presence of RPMI containing 10% FBS and 1 μg/ml puromycin or 5 μg/ml blasticidin. Immunoblotting confirmed decreased protein levels of each gene across the pool of infected cells. For cell viability experiments, cells were plated at a density of 3000 cells per well in a 96-well assay plate. Cell viability was assayed 3 and 6 days later with the CellTiter-Glo® Luminescent Cell Viability Assay kit (Promega). […]

[3] = system: HCC366, NCI-H1650 and NCI-H196 cell lines; assay: Cell viability after CRISPR-Cas9 knockout of ADAR1 (CellTiter-Glo); assay type: cell-based, human; details: 6 days after CRISPR-Cas9 knockout of ADAR1
Source text: as §2

[4] = system: ADAR; assay: Western blot of ADAR isoforms in B16 cells; assay type: cell-based, mouse; details: with or without IFNβ addition
Method: Whole cell lysates were prepared in lysis buffer (60 mM Tris HC, 2% SDS, 10% glycerol, complete EDTA-free protease-inhibitor (Roche, Basel, Switzerland), and 500 U/mL benzonase nuclease (Novagen, Merck, Darmstadt, Germany)). Samples were boiled at 100° C. and clarified by centrifugation. Protein concentration was measured with a BCA protein assay kit (Pierce, Dallas, Texas). Fifty to one hundred and fifty micrograms of protein was loaded on 4-12% Bolt® Bis-Tris Plus gels (Life Technologies, Carlsbad, CA) in MES buffer (Life Technologies). Protein was transferred to 0.45 μm nitrocellulose membranes (Bio-Rad, Hercules, CA). Membranes were blocked in Tris-buffered saline plus 0.1% Tween 20 (TBS-T) containing 5% non-fat dry milk for 1 hour at room temperature followed by overnight incubation with primary antibody at 4° C. Membranes were washed with TBS-T and incubated with HRP-conjugated secondary antibodies for 1 hour at room temperature. […] Blots were then analyzed using ImageJ and Adobe® Photoshop® software. […]
Whole cell lysates were prepared in lysis buffer (60 mM Tris HCl, 2% SDS, 10% glycerol, complete EDTA-free protease-inhibitor (Roche), and 500 U/mL benzonase nuclease (Novagen)). […] Protein concentration was measured with a BCA protein assay kit (Pierce). […] Blots were then analyzed using ImageJ and Adobe Photoshop software. […]

[5] = system: A549 ADAR1 knockout cells; assay: Immunoblot of interferon regulated genes in ADAR1 knockout cell lines; assay type: cell-based, human; details: 500 nM
Method: as §1

[6] = system: ADAR1 knockout A549 cells; assay: Viability of ADAR1 knockout A549 cells with interferon or drug treatment; assay type: cell-based, human
Method: For drug treatment assays, cells were plated at a density of 3000 cells per well in a 96-well assay plate. The following day, cells were treated with ruxolitinib (INCB018424) from Selleck Chemicals; MRT67307 hydrocloride (SML0702) from Sigma-Aldrich; human interferon-alphal (#8927) from Cell Signaling; recombinant human IFN-beta 1a (mammalian) protein (114151) and recombinant human IFN-gamma protein (285-IF-100) from R&D Systems. For preincubation drug treatment experiments, cells were plated in the presence of ruxolitinib and were treated with interferon-0 and ruxolitinib the following day. Control wells were treated with dimethylsulfoxide (DMSO). Cell viability was assayed 3 or 6 days after drug treatment with CellTiter-Glo® Luminescent Cell Viability Assay kit (Promega). Viability was normalized to DMSO controls.
for interferon treatment assays, cells were plated at a low density of 3000 cells per well in a 96-well assay plate. The following day, cells were treated with human interferon-alpha 1 (Cell Signaling, #8927) or recombinant human IFN-beta 1a (mammalian) protein (PBL Assay Science, 114151). Control wells were treated with water. Cell viability was assayed 3 or 6 days after drug treatment with CellTiter-Glo© Luminescent Cell Viability Assay kit (Promega). Viability was normalized to controls. Apoptosis was assayed 3 days after interferon treatment with Caspase-Glo®3/7 Assay kit (Promega). Dose curves were obtained using least-squares nonlinear regression on a standard four-parameter logistic model using GraphPad Prism.

[7] = system: B16 tumor cells; assay: In vitro cytokine stimulation and growth inhibition assay; assay type: cell-based, mouse; details: Adar-deficient versus control B16 tumor cells, 72 hours
Method: (§3) FIG. 9 includes 3 panels, identified as panels A, B, and C, which provide exemplary mechanisms of ADAR-induced sensitivity to checkpoint blockade. […] A certain number of B16 tumor cells (50 k; Adar null or control) were stimulated in vitro with cytokine for 72 hours and the cell numbers were then counted. […] A certain number of B16 tumor cells (50 k; Adar null or control) were stimulated with cytokine in vitro, washed to remove cytokine (for IFNβ), and evaluated via IFNβ ELISA. […] A certain number of B16 tumor cells (50 k; Adar null or control) were stimulated in vitro with cytokine for 72 hours and stained for Class I MHC and PD-L1.
Tumor cells were engineered as noted above and plated in DMEM+10% FBS containing the indicated combinations of cytokines: IFN (1,000 U/ml, PBL), IFN (100 ng/ml, Cell Signaling Technologies), TNF (10 ng/ml, PreproTech). For rescue/re-expression experiments, 10,000 cells were plated in 96-well plates and viable cells were enumerated after 72 hours using Cell Titer-Glo® (Promega, G7570). For all other growth inhibition assays, 50,000 cells were plated in 12-well plates and viable cells were counted after 72 hours using the Countess automated cell counting system (Thermo Fisher Scientific, C10227).

[8] = system: B16 tumor cells; assay: IFNβ ELISA of tumor cell supernatant; assay type: cell-based, mouse; details: Adar-deficient B16 tumor cells
Method: as §3
Cells were seeded at a density of 10,000 cells per well in a 96-well plate. Mouse interferon beta (pbl assay science) was then added. After 24 hrs of incubation at 37° C., the supernatant was aspirated from the wells to remove the mouse interferon beta. The wells were then gently washed once with media. Fresh warm media was then replaced in the wells. After 48 hrs of incubation at 37° C., the supernatant was collected, and the concentration of interferon beta was determined using The VeriKine Mouse Interferon Beta ELISA Kit (pbl assay science).

| Molecule | ADAR1 protein (immunoblot) [1] | viability [2] | viability [3] | depletion of ADAR isoforms (Western blot) [4] | other results |
| --- | --- | --- | --- | --- | --- |
| AGATAGCCATGCTGAGCCAC (chemistry not fully specified) [ADAR1 sg2] | knockout of ADAR1 isoforms p150 and p110 | no effect on control cells | decreased viability | – | – |
| CACCGTCTGGATTCACAACTCCAGG (antisense AAACCCTGGAGTTGTGAATCCAGAC; listed as DNA, chemistry not fully specified) [Mouse Adar sgRNA1, P150 only] | – | – | – | effectively depleted the P150 isoform of ADAR, but not the P110 isoform of ADAR | – |
| CACCGTCTACAGCCCTACCTTGCCA (antisense AAACTGGCAAGGTAGGGCTGTAGAC; listed as DNA, chemistry not fully specified) [Mouse Adar sgRNA 2, P110 and P150] | – | – | – | effectively depleted both isoforms | – |
| Nc1ncn([C@@H]2O[C@H](CO)[C@@H](O)[C@H]2O)c(=O)n1 [azacitidine, 5-azacytidine] | – | – | – | – | expression of MDA5 [5]: induced expression of interferon regulated gene MDA5; phosphorylation of EIF2α [5]: increased phosphorylation of EIF2α; sensitization to ADAR1 knockout [6]: sensitized A549 cells to ADAR1 knockout |
| GTGCATACACTCAAGCAGTG (chemistry not fully specified) [ADAR1 sg1] | knockout of ADAR1 isoforms p150 and p110 | no effect on control cells | decreased viability | – | – |
| B1 | – | – | – | – | cytokine-induced growth arrest [7]: increases IFNβ and IFNγ-induced growth arrest; also recorded: increases susceptibility to IFNβ and IFNγ; IFNβ secretion after interferon stimulation [8]: make IFNβ when stimulated with IFNβ |
